Data published in patent publication US11926610B1, “9-(2-hydroxypyridin-3-yl)10-(2-hydroxyethyl)-3,6-diphenyl-3,4,6,7,9,10-hexahydroacridine1,8(2H,5H)-dione as an antimicrobial compound” (KING FAISAL UNIVERSITY, priority 2023, dated 2024).

Tests used:
Type in all cases: cell-based
Conditions in all cases: after 10, 20, 40 and 60 minutes at all dilutions 1:100, 1:200, 1:400, 1:800
Candida albicans = assay: Antimicrobial screening by agar dilution, Candida albicans
Procedure: (§1) The antibacterial properties of the synthesized compound 9-(2-hydroxypyridin-3-yl)-10-(2-hydroxyethyl)-3,6-diphenyl-3,4,6,7,9,10-hexahydroacridine1,8(2H,5H)-dione were studied by the method of agar dilution. Test solutions of each compound was prepared in concentration of 1% using dimethylformamide as a solvent then they are diluted in physiological solution to obtain the final experimental dilutions 1:100, 1:200, 1:400, 1:800. The effect of these substances are compared with furacillin in a controllable study. The testing microbes used were gram positive bacteria Staphylococcus aureus, gram negative bacteria Pseudomonas aeruginosa and Escherichia coli and Candida albicans fungus. The experiments used for this survey were meat-pentonlu agar (EPA) for cultivation of bacteria and Saburo environment for the fungus. Each experiment used 1 mL of test solution on each plate […]. Two drops of emulsified with microbes feel were added. All experimental samples were taken from the agar after 10, 20, 40, 60 minutes in the environment on the basis of Patrk planted. The bacteria were cultivated at a temperature of 37° C. for 1 day and the mushroom was kept in a thermostat for 2 hours at a temperature of 28° C. Then results were checked.

Pseudomonas aeruginosa = assay: Antimicrobial screening by agar dilution, Pseudomonas aeruginosa
Procedure: as §1

Escherichia coli = assay: Antimicrobial screening by agar dilution, Escherichia coli
Procedure: as §1

Staphylococcus aureus = assay: Antimicrobial screening by agar dilution, Staphylococcus aureus
Procedure: as §1

Measured: inhibition activity (in words)

O=C1CC(c2ccccc2)CC2=C1C(c1cccnc1O)C1=C(CC(c3ccccc3)CC1=O)N2CCO (stereo not shown) [9-(2-hydroxypyridin-3-yl)-10-(2-hydroxyethyl)-3,6-diphenyl-3,4,6,7,9,10-hexahydroacridine1,8(2H,5H)-dione]
highest inhibition activity: all assays above
